Reference: patent publication US8999953B2, “Cyclodextrin nanotechnology for ophthalmic drug delivery” (Oculis EHF, priority 2005, dated 2015)
Values after ≈ are worked out from the molar mass of the structure shown. Counter-ions that a name gives are not always drawn.

Legend:
[1] = Eye drop formulation properties (osmolarity, viscosity, dissolved dexamethasone); type: physicochemical; settings: aqueous eye drop suspension with γ-cyclodextrin, aqueous with cosolvent or surfactant or cyclodextrin, thermodynamic from solid; eye drop formulation of EXPERIMENT 4
[2] = physchem; settings: aqueous cyclodextrin solution, 22.5 °C, aqueous with cosolvent or surfactant or cyclodextrin, thermodynamic from solid
[3] = Phase-solubility study of dexamethasone with RMβCD or γCD; type: physicochemical; settings: for Phase-solubility diagram type: room temperature
Experimental: Phase-solubility study was performed to determine the exact amount of RMβCD needed to solubilize dexamethasone in the eye drop medium. An excess amount of dexamethasone was added to aqueous solution containing from 0 to 25% (w/v) RMβCD, benzalkonium chloride (0.02% w/v), EDTA (0.1% w/v), NaCl (0.00 to 0.72% w/v) and HPMC (0.1%). […] The suspensions were allowed to cool to room temperature (22-23° C.) and equilibrate for 7 days. After equilibrium was attained, the suspension was filtered through a 0.45 μm membrane filter, diluted and analyzed by HPLC. […] The phase-solubility was determined to be of AL-type and thus dexamethasone appears to form 1:1 dexamethasone/RMβCD complex in the aqueous eye drop formulation.
Phase-solubility study was performed to determine the exact amount of γCD needed to solubilize dexamethasone. An excess amount of dexamethasone was added to aqueous solution or suspension containing from 0 to 10% (w/v) γCD. […] The suspensions were allowed to cool to room temperature (22-23° C.) and equilibrate for 7 days. After equilibrium was attained, the suspension was filtered through a 0.45 μm membrane filter, and the filtrate diluted and analyzed by HPLC.

[4] = system: rabbit eye; test: Ocular irritation in rabbits following powder administration; type: in vivo; settings: for Bulbar redness (points) / Discharge (points): drug eye, pure powder, median (range), 0-3 points
Experimental: Timolol maleate powder was administered to one eye of each rabbit and the other eye was used as control. Both pure timolol maleate powder and freeze-dried with PVP-polymer (2.4% of mass) were tested in 1.0 mg (n=3) and 0.1 mg (n=6) doses. Additionally, four rabbits received 0.1 mg of the pure powder 3 times a day for 8 days. Redness of bulbar conjunctivae and the amount of discharge were rated from photographs (0-3 points, randomized and masked evaluation). Slitlamp examination was also performed. Hematoxylin-eosin (H&E) stained sections of eyes were examined with a light microscope following the 8 days experiment.

[5] = Solubility of drugs in pure aqueous cyclodextrin solutions at room temperature (Experiment 6); settings: 22-23° C.

solubility at 7 days [1] [µg/mL] | solubility [2] [µg/mL] | Phase-solubility diagram type ([3]; aqueous RMβCD (0-25% w/v) eye drop solutions) | solubility at 7 days ([3]; aqueous γ-cyclodextrin solution/suspension, 22.5 °C, aqueous with cosolvent or surfactant or cyclodextrin, thermodynamic from solid, pure water containing γ-cyclodextrin, at 5% (w/v) γCD concentration, read-out: Maximum dexamethasone solubility) [µg/mL] | Phase-solubility diagram type ([3]; γCD 0 to 10% (w/v) in pure water) | Drug solubility in aqueous randomly methylated β-cyclodextrin ([5]; Randomly methylated β-cyclodextrin 5% w/v) [µg/mL] | Drug solubility in aqueous γ-cyclodextrin ([5]; γ-cyclodextrin 5% w/v) [µg/mL] | SMILES | Ocular irritation ([4]; 0.1 mg) | Slitlamp examination, surface photographs and histology, drug versus control eyes ([4]; 0.1 mg 3 times a day for 8 days) | Signs of irritation ([4]; 1.0 mg and 0.1 mg doses) | Bulbar redness (points) ([4]; 0.1 mg × 24 (8 days, n = 4)) | Discharge (points) ([4]; 0.1 mg × 24 (8 days, n = 4)) | Bulbar redness (points) ([4]; 1 hr. after 0.1 mg (n = 6)) | Discharge (points) ([4]; 1 hr. after 0.1 mg (n = 6)) | Bulbar redness (points) ([4]; 1 hr. after 1.0 mg (n = 3)) | Discharge (points) ([4]; 1 hr. after 1.0 mg (n = 3)) | Bulbar redness (points) ([4]; 24 hr. after 0.1 mg (n = 6)) | Discharge (points) ([4]; 24 hr. after 0.1 mg (n = 6)) | Bulbar redness (points) ([4]; 24 hr. after 1.0 mg (n = 3)) | Discharge (points) ([4]; 24 hr. after 1.0 mg (n = 3))
700 to 900 (≈ 1.78 to 2.29 mM) | 3000 (≈ 7.64 mM) | AL-type | 5300 (≈ 13.5 mM) | BS-type | – | – | C[C@@H]1C[C@H]2[C@@H]3CCC4=CC(=O)C=C[C@]4(C)[C@@]3(F)[C@@H](O)C[C@]2(C)[C@@]1(O)C(=O)CO [Dexamethasone] | – | – | – | – | – | – | – | – | – | – | – | – | –
– | – | – | – | – | – | – | CC(C)(C)NC[C@H](O)COc1nsnc1N1CCOCC1 [Timolol maleate powder, Timolol maleate] | negligible ocular irritation | negligible difference between drug and control eyes | No serious or irreversible signs of irritation | 0.8 (0.0-1.5) points | 0.0 (0.0-0.5) points | 1.5 (1.0-2.0) points | 0.0 (0.0-1.5) points | 1.0 (1.0-1.5) points | 1.0 (0.0-2.0) points | 1.0 (0.0-2.0) points | 0.0 (0.0-0.0) points | 1.0 (1.0-1.0) points | 0.3 (0.0-0.8) points
– | 1100 (≈ 2.53 mM) | – | – | – | 2000 | 4400 | CC1(C)O[C@@H]2C[C@H]3[C@@H]4CCC5=CC(=O)C=C[C@]5(C)[C@@]4(F)[C@@H](O)C[C@]3(C)[C@]2(C(=O)CO)O1 [Triamcinolone acetonide] | – | – | – | – | – | – | – | – | – | – | – | – | –
